Laboratory results: patent publication US11306064B2, “Benzothia(di)azepine compounds and their use as bile acid modulators” (Albireo AB, priority 2018, dated 2022)

Columns and labels:
Assay type in all cases: cell-based
Human LBAT = molecular target: T1, Human LBAT (Homo sapiens, UniProt Q14973); test: LBAT (h/m) assay: 3H-taurocholic acid uptake in human LBAT-overexpressing cells; details: 0.3 μM 3H-taurocholic acid and 7.5 μM cold taurocholic acid, 20 minutes, read-out: hLBAT IC50
T1 construct: expressed in transfected cells; kept under Geneticin selection
T1 sequence (Q14973 1-349): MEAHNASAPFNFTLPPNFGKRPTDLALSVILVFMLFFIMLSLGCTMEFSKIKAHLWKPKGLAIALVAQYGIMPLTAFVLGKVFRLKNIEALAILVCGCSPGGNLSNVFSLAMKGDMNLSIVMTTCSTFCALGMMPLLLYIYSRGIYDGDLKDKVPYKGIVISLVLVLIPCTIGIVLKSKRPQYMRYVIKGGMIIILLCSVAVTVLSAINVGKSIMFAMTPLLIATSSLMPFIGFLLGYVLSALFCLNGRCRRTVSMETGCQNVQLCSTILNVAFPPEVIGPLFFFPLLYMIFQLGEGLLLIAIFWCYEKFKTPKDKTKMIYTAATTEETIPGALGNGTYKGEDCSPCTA
In short: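 LBAT-overexpressing cells, serum-free MEM-alpha, 20 min at 37° C with inhibitor (3-fold, 10-point) plus 0.3 μM 3H-taurocholic acid and cold taurocholic acid (7.5 μM human; 25 μM mouse), 0.2% DMSO. Stopped on ice, washed with 1 mM unlabelled taurocholate; uptake by scintillation counting.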

Human ASBT = molecular target: T2, Human ASBT (Homo sapiens, UniProt Q12908); test: ASBT (h/m) assay: 3H-taurocholic acid uptake in human ASBT-overexpressing cells; details: 0.25 μM 3H-taurocholic acid and 5 μM cold taurocholic acid, 20 minutes, read-out: hASBT IC50
T2 construct: expressed in transfected cells; kept under Puromycin selection
T2 sequence (Q12908 1-348): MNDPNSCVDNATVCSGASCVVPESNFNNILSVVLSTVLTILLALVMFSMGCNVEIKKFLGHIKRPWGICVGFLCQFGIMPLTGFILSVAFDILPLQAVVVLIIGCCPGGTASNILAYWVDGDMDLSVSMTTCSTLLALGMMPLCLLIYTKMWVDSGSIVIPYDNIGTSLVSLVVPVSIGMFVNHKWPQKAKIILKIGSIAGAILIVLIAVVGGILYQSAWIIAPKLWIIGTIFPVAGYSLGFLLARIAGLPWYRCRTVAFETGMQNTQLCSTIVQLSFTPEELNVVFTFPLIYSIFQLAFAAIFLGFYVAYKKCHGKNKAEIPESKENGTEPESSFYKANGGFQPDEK
Procedure: ASBT (h/m) Assay Protocol
10,000 cells (Human or Mouse ASBT-overexpressing cells) were seeded in 96-wells plate (Corning CLS3809) in 200 μL MEM-alpha medium (Gibco 12571-063) supplemented with 10% FBS (Gibco 10438026) containing Puromycin (Gibco A1113803) (10 μg/mL) and incubated at 37° C. in 5% CO2 for 48 hours. After incubation, media was decanted from the wells and cells were washed two times with 300 μL of basal MEM-alpha medium (FBS-free). After decanting basal MEM-alpha medium each time, plates were tapped against paper towel to ensure maximum removal of residual media. Test inhibitor dilutions (highest test concentration being 10 μM, 3-fold serial dilution, 10 points) prepared in DMSO (Sigma D2650) were added in incubation mix (maintaining 0.2% final DMSO concentration) containing 0.25 μM 3H-taurocholic acid (ARC ART-1368) and 5 μM of cold taurocholic acid (Sigma T4009). 50 μL of incubation mix containing test inhibitors was then added to the wells (in duplicate) and the plates were incubated for 20 minutes in a CO2 incubator at 37° C. After incubation, the reaction was stopped by keeping the plates on ice water mix for 2-3 minutes and then the incubation mix was aspirated completely from the wells. The wells were washed two times with 250 μL of chilled unlabelled 1 mM taurocholic acid dissolved in HEPES (Gibco 15630080)-buffered (10 mM) HBSS (Gibco 14175079) (pH 7.4). The plates were tapped against a paper towel after every wash to ensure maximum removal of blocking buffer.
(§1) 100 μL of MicroScint-20 (PerkinElmer 6013621) was added to the wells and kept overnight at room temperature before reading the plates in TopCount NXT™ Microplate Scintillation and Luminescence Counter from PerkinElmer under 3H Test protocol (set at 120 seconds reading time per well).
(§2) Preparation of Test Compound Dilutions
(§3) All test compounds were provided in powder form at room temperature. 10 mM DMSO stocks of the test compounds were prepared, aliquoted and stored at −20° C. From the 10 mM DMSO stock of the compounds, a 3-fold serial dilution in DMSO was prepared to get a total of 10 dilutions of the test compounds. 0.5 μL of this dilution in DMSO was added to 250 μL of FBS-free basal media containing 3H-taurocholic acid and cold taurocholic acid to prepare the incubation mixture.

HepaRG cells = test: HepaRG-based assay: 3H-taurocholic acid uptake in differentiated HepaRG cells; details: 0.3 μM 3H-taurocholic acid and 7.5 μM cold taurocholic acid, 30 minutes
Procedure: HepaRG-Based Assay Protocol
A cryopreserved vial of differentiated HepaRG cells (Biopredic International HPR116080) was thawed in HepaRG Thawing/Plating/General Purpose Medium (Biopredic International ADD670C) supplemented with 200 mM Glutamax (Gibco 35050061) following the protocol provided by Biopredic International. 70,000 cells per well were seeded in 96-wells plate (Corning CLS3809) in 100 μL of HepaRG Thawing/Plating/General Purpose Medium supplemented with 200 mM Glutamax and incubated at 37° C. in 5% CO2 for 24 hours. Post incubation, the seeding media was replaced by HepaRG Maintenance/Metabolism Medium (Biopredic International ADD620C) and incubated for 6 days, with fresh HepaRG Maintenance/Metabolism Medium replenishment every 48 hours. After 7 days incubation post seeding, incubation media was decanted from the wells and cells were washed two times with 250 μL of William's E Basal Media (Gibco 12551032). After decanting William's E Basal Media each time, plates were tapped against paper towel to ensure maximum removal of residual media.
Incubation mix was prepared by adding test inhibitor dilutions (3-fold serial dilution in DMSO (Sigma D2650)) in William's E media (basal) containing 0.3 μM 3H-taurocholic acid (ARC ART-1368) and 7.5 μM cold taurocholic acid (Sigma T4009) (maintaining 0.2% final DMSO concentration). 50 μl of incubation mix containing test inhibitors was then added to the wells (in duplicate) and the plates were incubated for 30 minutes in 5% CO2 incubator at 37° C. After incubation, the reaction was stopped by keeping the plates on ice water mix for 2-3 minutes and then the incubation mix was aspirated completely from the wells. The wells were washed two times with 250 μL of chilled unlabelled 1 mM taurocholic acid dissolved in HEPES (Gibco 15630080)-buffered (10 mM) HBSS (Gibco 14175079) (pH 7.4). The plates were tapped against a paper towel after every wash to ensure maximum removal of blocking buffer.
as §1, with “well, with normal plate orientation).” for “well).”
as §2, §3

| IC50 (Human LBAT) [nM] | IC50 (Human ASBT) [nM] | IC50 (HepaRG cells; Homo sapiens, HepaRG) [nM] | IC50 (HepaRG cells) [nM] | Compound |
| --- | --- | --- | --- | --- |
| 82 | 33 | 1030 |  | CCCCC1(CC)CN(c2ccccc2)c2cc(SC)c(O/C=C/C(=O)O)cc2S(=O)(=O)C1 (racemic) [Example 16, (E)-3-((3-butyl-3-ethyl-7-(methylthio)-1,1-dioxido-5-phenyl-2,3,4,5-tetrahydro-1,5-benzothiazepin-8-yl)oxy)acrylic Acid] |
| 8.3 | 26 | 336 |  | CCCCC1(CC)CN(c2ccccc2)c2cc(SC)c(O/C=C(\F)C(=O)O)cc2S(=O)(=O)C1 (racemic) [Example 41, (Z)-3-((3-butyl-3-ethyl-7-(methylthio)-1,1-dioxido-5-phenyl-2,3,4,5-tetrahydro-1,5-benzothiazepin-8-yl)oxy)-2-fluoroacrylic Acid] |
| 24 | 97 | 590 |  | CCCCC1(CC)CN(c2ccccc2)c2cc(Cl)c(O/C=C(\F)C(=O)O)cc2S(=O)(=O)C1 (racemic) [Example 46, (Z)-3-((3-butyl-7-chloro-3-ethyl-1,1-dioxido-5-phenyl-2,3,4,5-tetrahydro-1,5-benzothiazepin-8-yl)oxy)-2-fluoroacrylic Acid] |
| 94 | 220 | 570 |  | CCCCC1(CC)CN(c2ccccc2)c2cc(Cl)c(O/C=C/C(=O)O)cc2S(=O)(=O)C1 (racemic) [Example 49, (E)-3-((3-butyl-7-chloro-3-ethyl-1,1-dioxido-5-phenyl-2,3,4,5-tetrahydro-1,5-benzothiazepin-8-yl)oxy)acrylic Acid] |
| 10 | 35 | 358 |  | CCCCC1(CC)CN(c2ccccc2)c2cc(Br)c(O/C=C(\F)C(=O)O)cc2S(=O)(=O)C1 (racemic) [Example 63, (Z)-3-((7-bromo-3-butyl-3-ethyl-1,1-dioxido-5-phenyl-2,3,4,5-tetrahydro-1,5-benzothiazepin-8-yl)oxy)-2-fluoroacrylic Acid] |
| 31 | 28 | 559 |  | CCCCC1(CC)CN(c2ccccc2)c2cc(SC)c(O/C=C(\F)C(=O)O)cc2S(=O)(=O)N1 (racemic) [Example 84, (Z)-3-((3-butyl-3-ethyl-7-(methylthio)-1,1-dioxido-5-phenyl-2,3,4,5-tetrahydro-1,2,5-benzothiadiazepin-8-yl)oxy)-2-fluoroacrylic Acid] |
| 70 | 2250 | 1150 |  | CCCCC1(CC)CN(c2ccccc2)c2cc(SC)c(O/C=C/C(=O)O)cc2S(=O)(=O)N1C (racemic) [Example 88, (E)-3-((3-butyl-3-ethyl-2-methyl-7-(methylthio)-1,1-dioxido-5-phenyl-2,3,4,5-tetrahydro-1,2,5-benzothiadiazepin-8-yl)oxy)acrylic Acid] |
| 22 | 286 | 671 |  | CCCCC1(CC)CN(c2ccccc2)c2cc(SC)c(O/C=C(\F)C(=O)O)cc2S(=O)(=O)N1C (racemic) [Example 98, (Z)-3-((3-butyl-3-ethyl-2-methyl-7-(methylthio)-1,1-dioxido-5-phenyl-2,3,4,5-tetrahydro-1,2,5-benzothiadiazepin-8-yl)oxy)-2-fluoroacrylic Acid] |
| 10 | 220 | 378 |  | CCCCC1(CC)CN(c2ccccc2)c2cc(SC)c(O/C=C(\F)C(=O)O)cc2S(=O)(=O)C1 (single isomer, unassigned) [Example 42, (Z)-3-((3-butyl-3-ethyl-7-(methylthio)-1,1-dioxido-5-phenyl-2,3,4,5-tetrahydro-1,5-benzothiazepin-8-yl)oxy)-2-fluoroacrylic acid] |
| 25 | 339 | 362 |  | CCCCC1(CC)CN(c2ccccc2)c2cc(Cl)c(O/C=C(\F)C(=O)O)cc2S(=O)(=O)C1 (single isomer, unassigned) [Example 47, (Z)-3-((3-butyl-7-chloro-3-ethyl-1,1-dioxido-5-phenyl-2,3,4,5-tetrahydro-1,5-benzothiazepin-8-yl)oxy)-2-fluoroacrylic acid] |
| 89 | 77 | 339 |  | CCCCC1(CC)CN(c2ccccc2)c2cc(Cl)c(O/C=C/C(=O)O)cc2S(=O)(=O)C1 (single isomer, unassigned) [Example 50, (E)-3-((3-butyl-7-chloro-3-ethyl-1,1-dioxido-5-phenyl-2,3,4,5-tetrahydro-1,5-benzothiazepin-8-yl)oxy)acrylic acid] |
| 137 | 361 | 1160 |  | CCCCC1(CC)CN(c2ccccc2)c2cc(I)c(O/C=C/C(=O)O)cc2S(=O)(=O)C1 (single isomer, unassigned) [Example 57, (E)-3-((3-butyl-3-ethyl-7-iodo-1,1-dioxido-5-phenyl-2,3,4,5-tetrahydro-1,5-benzothiazepin-8-yl)oxy)acrylic acid] |
| 84 | 24 |  | 1500 | CCCCC1(CC)CN(c2ccccc2)c2cc(I)c(O/C=C/C(=O)O)cc2S(=O)(=O)C1 (single isomer, unassigned) [Example 58, (E)-3-((3-butyl-3-ethyl-7-iodo-1,1-dioxido-5-phenyl-2,3,4,5-tetrahydro-1,5-benzothiazepin-8-yl)oxy)acrylic acid] |
| 28 | 524 | 455 |  | CCCC[C@]1(CC)CN(c2ccccc2)c2cc(Br)c(O/C=C(\F)C(=O)O)cc2S(=O)(=O)C1 (single isomer, unassigned) [Example 64] |
